Source: publication doi:10.1101/2025.06.15.659787v1 (biorxiv, 2025)

Molecular target: Mtb-SufS (Mycobacterium tuberculosis, UniProt P9WQ69)
Sequence (P9WQ69 whole entry): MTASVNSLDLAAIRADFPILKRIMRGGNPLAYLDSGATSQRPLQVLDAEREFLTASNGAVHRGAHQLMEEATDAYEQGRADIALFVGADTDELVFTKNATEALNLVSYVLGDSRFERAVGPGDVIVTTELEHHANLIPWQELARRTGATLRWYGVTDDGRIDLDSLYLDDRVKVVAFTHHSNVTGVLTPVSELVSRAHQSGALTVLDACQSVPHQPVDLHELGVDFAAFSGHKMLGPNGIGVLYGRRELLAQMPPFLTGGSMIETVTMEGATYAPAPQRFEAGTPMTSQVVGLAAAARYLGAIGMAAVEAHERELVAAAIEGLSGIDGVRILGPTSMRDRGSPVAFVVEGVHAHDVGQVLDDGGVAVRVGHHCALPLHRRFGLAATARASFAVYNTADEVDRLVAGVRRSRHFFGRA

SMILES: N[C@@H](CS)C(=O)O [L-Cys]
- GC-MS assay of L-Ala formation: Mtb-SufS shows low basal activity
